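Assay format: 96-well plates, 48-hour exposure. GI50 marks 50% less growth. Definition used: TGI = concentration required for complete inhibition of growth.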
Experiments:
Assay in all cases: inhibition of tumour cell growth, NCI panel, 48 h
786-0 renal = test system: 786-0 renal
A498 renal = test system: A498 renal
A549 NSCLC = test system: A549 NSCLC
ACHN renal = test system: ACHN renal
BT-549 breast = test system: BT-549 breast
CAKI-1 renal = test system: CAKI-1 renal
CCRF-CEM leukemia = test system: CCRF-CEM leukemia
COLO 205 colon = test system: COLO 205 colon
DU-145 prostate = test system: DU-145 prostate
EKVX NSCLC = test system: EKVX NSCLC
HCT-116 colon = test system: HCT-116 colon
HCT-15 colon = test system: HCT-15 colon
HL-60(TB) leukemia = test system: HL-60(TB) leukemia
HOP-62 NSCLC = test system: HOP-62 NSCLC
HOP-92 NSCLC = test system: HOP-92 NSCLC
HS 578T breast = test system: HS 578T breast
HT29 colon = test system: HT29 colon
IGROV1 ovarian = test system: IGROV1 ovarian
K-562 leukemia = test system: K-562 leukemia
KM12 colon = test system: KM12 colon
LOX IMVI melanoma = test system: LOX IMVI melanoma
M14 melanoma = test system: M14 melanoma
MCF7 breast = test system: MCF7 breast
MDA-MB-231 breast = test system: MDA-MB-231 breast
MDA-MB-435 = test system: MDA-MB-435
MOLT-4 leukemia = test system: MOLT-4 leukemia
NCI-H226 lung = test system: NCI-H226 lung
NCI-H460 lung = test system: NCI-H460 lung
NCI-H522 lung = test system: NCI-H522 lung
OVCAR-3 ovarian = test system: OVCAR-3 ovarian
OVCAR-4 ovarian = test system: OVCAR-4 ovarian
OVCAR-8 ovarian = test system: OVCAR-8 ovarian
PC-3 prostate = test system: PC-3 prostate
RPMI-8226 leukemia = test system: RPMI-8226 leukemia
RXF 393 renal = test system: RXF 393 renal
SF-268 CNS = test system: SF-268 CNS
SF-295 CNS = test system: SF-295 CNS
SF-539 CNS = test system: SF-539 CNS
SK-MEL-2 melanoma = test system: SK-MEL-2 melanoma
SK-MEL-28 melanoma = test system: SK-MEL-28 melanoma
SK-MEL-5 melanoma = test system: SK-MEL-5 melanoma
SK-OV-3 ovarian = test system: SK-OV-3 ovarian
SN12C renal = test system: SN12C renal
SNB-19 CNS = test system: SNB-19 CNS
SNB-75 CNS = test system: SNB-75 CNS
SR leukemia = test system: SR leukemia
SW-620 colon = test system: SW-620 colon
T-47D breast = test system: T-47D breast
TK-10 renal = test system: TK-10 renal
U251 CNS = test system: U251 CNS
UACC-257 melanoma = test system: UACC-257 melanoma
UACC-62 melanoma = test system: UACC-62 melanoma
UO-31 renal = test system: UO-31 renal

Work on `O=C(Nc1ccccc1)NS(=O)(=O)c1ccc(-n2nc3c(c2-c2ccc(Cl)cc2)Cc2ccccc2-3)cc1` yielded a GI50 (786-0 renal) of 27.5 µM, a TGI (786-0 renal) greater than 100 µM and a GI50 (A498 renal) of 21.8 µM. For the same molecule, the TGI (A498 renal) was 66.8 µM, the GI50 (A549 NSCLC) was 24.5 µM and the TGI (A549 NSCLC) was greater than 100 µM. It also gave a GI50 (ACHN renal) of 12.9 µM, a TGI (ACHN renal) of 71.8 µM and a GI50 (BT-549 breast) of 21 µM. For the same molecule, the TGI (BT-549 breast) was 65.9 µM, the GI50 (CAKI-1 renal) was 4.37 µM and the TGI (CAKI-1 renal) was 29.2 µM. It also gave a GI50 (CCRF-CEM leukemia) of 3.21 µM, a TGI (CCRF-CEM leukemia) of 10.2 µM and a GI50 (COLO 205 colon) of 23.5 µM. For the same molecule, the TGI (COLO 205 colon) was 64.9 µM, the GI50 (DU-145 prostate) was 19.4 µM and the TGI (DU-145 prostate) was 47 µM. For the same molecule, the GI50 (EKVX NSCLC) was 15.8 µM, the TGI (EKVX NSCLC) was 78.9 µM and the GI50 (HCT-116 colon) was 22.5 µM. The TGI (HCT-116 colon) was greater than 100 µM, the GI50 (HCT-15 colon) was 18.5 µM and the TGI (HCT-15 colon) was 69.7 µM. It also gave a GI50 (HL-60(TB) leukemia) of 13.4 µM, a TGI (HL-60(TB) leukemia) of 35.6 µM and a GI50 (HOP-62 NSCLC) of 72 µM. It also gave a TGI (HOP-62 NSCLC) greater than 100 µM, a GI50 (HOP-92 NSCLC) of 17.1 µM and a TGI (HOP-92 NSCLC) of 67 µM. The GI50 (HS 578T breast) was 19.6 µM, the TGI (HS 578T breast) was 82.3 µM and the GI50 (HT29 colon) was 29.8 µM. It also gave a TGI (HT29 colon) greater than 100 µM, a GI50 (IGROV1 ovarian) of 28.5 µM and a TGI (IGROV1 ovarian) greater than 100 µM. It also gave a GI50 (K-562 leukemia) of 4.66 µM, a TGI (K-562 leukemia) of 21.9 µM and a GI50 (KM12 colon) of 16 µM. The TGI (KM12 colon) was 55.1 µM, the GI50 (LOX IMVI melanoma) was 15.3 µM and the TGI (LOX IMVI melanoma) was 46.4 µM. The GI50 (M14 melanoma) was 34.5 µM, the TGI (M14 melanoma) was greater than 100 µM and the GI50 (MCF7 breast) was 11.2 µM. It also gave a TGI (MCF7 breast) of 28.2 µM, a GI50 (MDA-MB-231 breast) of 14.7 µM and a TGI (MDA-MB-231 breast) of 63.3 µM. The GI50 (MDA-MB-435) was 16.8 µM, the TGI (MDA-MB-435) was 52.7 µM and the GI50 (MOLT-4 leukemia) was 7.05 µM. The TGI (MOLT-4 leukemia) was 42.4 µM, the GI50 (NCI-H226 lung) was 15.5 µM and the TGI (NCI-H226 lung) was 61.9 µM. The GI50 (NCI-H460 lung) was 22.3 µM, the TGI (NCI-H460 lung) was 85.1 µM and the GI50 (NCI-H522 lung) was 19 µM. For the same molecule, the TGI (NCI-H522 lung) was 67.4 µM, the GI50 (OVCAR-3 ovarian) was 18.3 µM and the TGI (OVCAR-3 ovarian) was 54.2 µM. For the same molecule, the GI50 (OVCAR-4 ovarian) was 45.2 µM, the TGI (OVCAR-4 ovarian) was greater than 100 µM and the GI50 (OVCAR-8 ovarian) was 24.7 µM. For the same molecule, the TGI (OVCAR-8 ovarian) was 86.8 µM, the GI50 (PC-3 prostate) was 16.7 µM and the TGI (PC-3 prostate) was 47.8 µM. For the same molecule, the GI50 (RPMI-8226 leukemia) was 16.5 µM, the TGI (RPMI-8226 leukemia) was 48.9 µM and the GI50 (RXF 393 renal) was 22.2 µM. For the same molecule, the TGI (RXF 393 renal) was 85.7 µM, the GI50 (SF-268 CNS) was 14.8 µM and the TGI (SF-268 CNS) was 88.2 µM. It also gave a GI50 (SF-295 CNS) of 18.2 µM, a TGI (SF-295 CNS) of 78.1 µM and a GI50 (SF-539 CNS) of 18.8 µM. For the same molecule, the TGI (SF-539 CNS) was 45.6 µM, the GI50 (SK-MEL-2 melanoma) was 27.4 µM and the TGI (SK-MEL-2 melanoma) was 91.8 µM. For the same molecule, the GI50 (SK-MEL-28 melanoma) was 33.7 µM, the TGI (SK-MEL-28 melanoma) was greater than 100 µM and the GI50 (SK-MEL-5 melanoma) was 22 µM. It also gave a TGI (SK-MEL-5 melanoma) of 69.8 µM, a GI50 (SK-OV-3 ovarian) of 53.9 µM and a TGI (SK-OV-3 ovarian) greater than 100 µM. For the same molecule, the GI50 (SN12C renal) was 23.2 µM, the TGI (SN12C renal) was 66.6 µM and the GI50 (SNB-19 CNS) was 61.5 µM. The TGI (SNB-19 CNS) was greater than 100 µM, the GI50 (SNB-75 CNS) was 48.7 µM and the TGI (SNB-75 CNS) was greater than 100 µM. The GI50 (SR leukemia) was 2.82 µM, the TGI (SR leukemia) was 7.18 µM and the GI50 (SW-620 colon) was 23 µM. The TGI (SW-620 colon) was 55.4 µM, the GI50 (T-47D breast) was 49.9 µM and the TGI (T-47D breast) was greater than 100 µM. The GI50 (TK-10 renal) was 18.3 µM, the TGI (TK-10 renal) was 74.4 µM and the GI50 (U251 CNS) was 22.3 µM. The TGI (U251 CNS) was 63.2 µM, the GI50 (UACC-257 melanoma) was 37.1 µM and the TGI (UACC-257 melanoma) was greater than 100 µM. It also gave a GI50 (UACC-62 melanoma) of 12.2 µM, a TGI (UACC-62 melanoma) of 30.6 µM and a GI50 (UO-31 renal) of 24.5 µM. For the same molecule, the TGI (UO-31 renal) was greater than 100 µM.

From PubChem BioAssay (NCI)
